Measurements published in patent publication US20070128217A1 (priority 2003, published 2007).

How the values were obtained:
[1] = system: antibodies in sera from SARS patients (sera 1a, 1b, 2, 6, 37, 62, London, SARS-yellow, SARS-green); type: binding, human; design: Binding of serum 6 to linear peptides of protein X1 of SARS-CoV Urbani / Binding of serum 37 to linear peptides of protein X1 of SARS-CoV Urbani / Binding of serum 6 to looped/cyclic peptide (PEPSCAN-ELISA) / Binding of serum 37 to looped/cyclic peptide (PEPSCAN-ELISA) / Binding of serum 37 to looped/cyclic peptides of protein X1 of SARS-CoV Urbani / Binding of serum 6 to linear peptides of protein X2 / Binding of serum 37 to linear peptides of protein X2 / Binding of serum 37 to looped/cyclic peptides of protein X2 of SARS-CoV Urbani / Binding of serum 6 to linear peptides of protein M of SARS-CoV Urbani / Binding of serum 37 to linear peptides of protein M of SARS-CoV Urbani / Binding of serum 6 to looped/cyclic peptides of protein M of SARS-CoV Urbani / Binding of serum 37 to looped/cyclic peptides of protein M of SARS-CoV Urbani / Binding of serum 6 to linear peptides of protein X3 of SARS-CoV Urbani / Binding of serum 37 to linear peptides of protein X3 of SARS-CoV Urbani / Binding of serum 37 to looped/cyclic peptides of protein X3 of SARS-CoV Urbani / Binding of serum 6 to linear peptides of protein X4 of SARS-CoV Urbani / Binding of serum 37 to linear peptides of protein X4 of SARS-CoV Urbani / Binding of serum 37 to looped/cyclic peptides of protein X4 of SARS-CoV Urbani / Binding of serum 6 to linear peptides of protein X5 of SARS-CoV Urbani / Binding of serum 37 to linear peptides of protein X5 of SARS-CoV Urbani / Binding of serum 37 to looped/cyclic peptides of protein X5 of SARS-CoV Urbani / Binding of serum 6 to linear peptides of protein N of SARS-CoV Urbani / Binding of serum 37 to linear peptides of protein N of SARS-CoV Urbani / Binding of serum 6 to linear peptide (PEPSCAN-ELISA) / Binding of serum 1a to looped/cyclic peptides of protein N of SARS-CoV Urbani / Binding of serum 1b to looped/cyclic peptides of protein N of SARS-CoV Urbani / Binding of serum 2 to looped/cyclic peptides of protein N of SARS-CoV Urbani / Binding of serum 6 to looped/cyclic peptides of protein N of SARS-CoV Urbani / Binding of serum 37 to looped/cyclic peptides of protein N of SARS-CoV Urbani / Binding of serum 62 to looped/cyclic peptides of protein N of SARS-CoV Urbani / Binding of serum London to looped/cyclic peptides of protein N of SARS-CoV Urbani / Binding of serum SARS-green to looped/cyclic peptides of protein N of SARS-CoV Urbani: unit not given here
[2] = system: control sera (pooled serum of ten healthy LUMC hospital workers; commercial negative donor pooled serum from the Dutch bloodbank); type: binding, human; design: Binding of Control serum LUMC to linear peptides / Binding of Control serum Blood-bank to linear peptides / Binding of Control serum LUMC to looped peptides / Binding of Control Serum Blood-Bank to Looped peptides / Binding of Control serum LUMC to linear peptides of the protein M of SARS-CoV Urbani / Binding of Control serum Blood-bank to linear peptides of the protein M of SARS-CoV Urbani / Binding of Control serum LUMC to looped peptides of the protein M of SARS-CoV Urbani / Binding of Control Serum Blood-Bank to Looped peptides of the protein M of SARS-CoV Urbani: unit not given here
[3] = system: rabbit serum obtained by immunizing a rabbit with the SARS-CoV strain Frankfurt 1; type: binding; design: Binding of a rabbit serum to linear peptides / Binding of a rabbit serum to looped peptides / Rabbit serum linear peptides / Rabbit serum looped peptides / Binding of a rabbit serum to linear peptides of protein N of SARS-CoV Urbani (Rabbit serum linear peptides) / Binding of a rabbit serum to looped/cyclic peptides of protein N of SARS-CoV Urbani (Rabbit serum looped peptides): unit not given here

QLLEQWNLVIGFLFL
0.0: Binding of serum SARS-yellow to linear peptides of protein M of SARS-CoV Urbani [1] | Rabbit serum looped peptides [3]
0.5: Binding of serum 1a to looped/cyclic peptides of protein M of SARS-CoV Urbani [1] | Binding of serum 1b to looped/cyclic peptides of protein M of SARS-CoV Urbani [1] | Binding of serum 2 to linear peptides of protein M of SARS-CoV Urbani [1] | Binding of serum 6 to looped/cyclic peptides of protein M of SARS-CoV Urbani [1] | Binding of serum 37 to looped/cyclic peptides of protein M of SARS-CoV Urbani [1] | Binding of Control Serum Blood-Bank to Looped peptides of the protein M of SARS-CoV Urbani [2] | Binding of Control serum Blood-bank to linear peptides of the protein M of SARS-CoV Urbani [2]
0.2: Binding of serum London to looped/cyclic peptides of protein M of SARS-CoV Urbani [1] | Binding of serum SARS-green to linear peptides of protein M of SARS-CoV Urbani [1] | Rabbit serum linear peptides [3]
0.7: Binding of serum 1a to linear peptides of protein M of SARS-CoV Urbani [1] | Binding of serum SARS-yellow to looped/cyclic peptides of protein M of SARS-CoV Urbani [1] | Binding of Control serum LUMC to looped peptides of the protein M of SARS-CoV Urbani [2]
0.3: Binding of serum SARS-green to looped/cyclic peptides of protein M of SARS-CoV Urbani [1] | Binding of Control serum LUMC to linear peptides of the protein M of SARS-CoV Urbani [2]
0.4: Binding of serum 1b to linear peptides of protein M of SARS-CoV Urbani [1] | Binding of serum 2 to looped/cyclic peptides of protein M of SARS-CoV Urbani [1] | Binding of serum 6 to linear peptides of protein M of SARS-CoV Urbani [1] | Binding of serum 62 to looped/cyclic peptides of protein M of SARS-CoV Urbani [1] | Binding of serum London to linear peptides of protein M of SARS-CoV Urbani [1]
0.6: Binding of serum 37 to linear peptides of protein M of SARS-CoV Urbani [1] | Binding of serum 62 to linear peptides of protein M of SARS-CoV Urbani [1]

QLRARSVSPKLFIRQ
0.4: Binding of serum London to looped/cyclic peptides of protein X4 of SARS-CoV Urbani [1] | Binding of serum SARS-green to looped/cyclic peptides of protein X4 of SARS-CoV Urbani [1]
recognized: Recognition of the peptide by the rabbit serum [3]
0.9: Binding of serum 6 to linear peptides of protein X4 of SARS-CoV Urbani [1] | Binding of serum 6 to looped/cyclic peptides of protein X4 of SARS-CoV Urbani [1] | Binding of Control Serum Blood-Bank to Looped peptides [2]
0.3: Binding of serum SARS-yellow to linear peptides of protein X4 of SARS-CoV Urbani [1]
0.8: Binding of serum 2 to looped/cyclic peptides of protein X4 of SARS-CoV Urbani [1] | Binding of serum London to linear peptides of protein X4 of SARS-CoV Urbani [1] | Binding of serum SARS-yellow to looped/cyclic peptides of protein X4 of SARS-CoV Urbani [1] | Binding of Control serum LUMC to looped peptides [2]
0.6: Binding of serum 1b to linear peptides of protein X4 of SARS-CoV Urbani [1] | Binding of serum 1b to looped/cyclic peptides of protein X4 of SARS-CoV Urbani [1] | Binding of serum 2 to linear peptides of protein X4 of SARS-CoV Urbani [1] | Binding of serum 37 to looped/cyclic peptides of protein X4 of SARS-CoV Urbani [1] | Binding of serum 62 to looped/cyclic peptides of protein X4 of SARS-CoV Urbani [1] | Binding of serum SARS-green to linear peptides of protein X4 of SARS-CoV Urbani [1] | Binding of Control serum LUMC to linear peptides [2]
0.7: Binding of serum 1a to linear peptides of protein X4 of SARS-CoV Urbani [1] | Binding of serum 1a to looped/cyclic peptides of protein X4 of SARS-CoV Urbani [1] | Binding of serum 37 to linear peptides of protein X4 of SARS-CoV Urbani [1] | Binding of serum 62 to linear peptides of protein X4 of SARS-CoV Urbani [1] | Binding of Control serum Blood-bank to linear peptides [2]

QLSLLKVTAFQHQNS
0.2: Binding of serum SARS-green to looped/cyclic peptides of protein X2 of SARS-CoV Urbani [1]
0.1: Binding of serum SARS-green to linear peptides of protein X2 [1] | Binding of serum SARS-yellow to linear peptides of protein X2 [1]
0.3: Binding of serum 2 to linear peptides of protein X2 [1] | Binding of serum 2 to looped/cyclic peptides of protein X2 of SARS-CoV Urbani [1] | Binding of serum 6 to looped/cyclic peptides of protein X2 of SARS-CoV Urbani [1] | Binding of serum 62 to linear peptides of protein X2 [1] | Binding of serum London to linear peptides of protein X2 [1] | Binding of serum London to looped/cyclic peptides of protein X2 of SARS-CoV Urbani [1] | Binding of serum SARS-yellow to looped/cyclic peptides of protein X2 of SARS-CoV Urbani [1]
0.6: Binding of serum 62 to looped/cyclic peptides of protein X2 of SARS-CoV Urbani [1] | Binding of Control serum LUMC to linear peptides [2] | Binding of Control serum LUMC to looped peptides [2] | Binding of a rabbit serum to linear peptides [3]
0.5: Binding of serum 1a to linear peptides of protein X2 [1] | Binding of serum 1a to looped/cyclic peptides of protein X2 of SARS-CoV Urbani [1] | Binding of serum 1b to looped/cyclic peptides of protein X2 of SARS-CoV Urbani [1] | Binding of serum 37 to linear peptides of protein X2 [1] | Binding of Control Serum Blood-Bank to Looped peptides [2] | Binding of a rabbit serum to looped peptides [3]
0.4: Binding of serum 1b to linear peptides of protein X2 [1] | Binding of serum 6 to linear peptides of protein X2 [1] | Binding of serum 37 to looped/cyclic peptides of protein X2 of SARS-CoV Urbani [1] | Binding of Control serum Blood-bank to linear peptides [2]

QQELYSPLFLIVAAL
0.8: Binding of serum London to linear peptides of protein X4 of SARS-CoV Urbani [1]
0.4: Binding of serum 1b to looped/cyclic peptides of protein X4 of SARS-CoV Urbani [1] | Binding of serum 6 to looped/cyclic peptides of protein X4 of SARS-CoV Urbani [1] | Binding of Control serum LUMC to linear peptides [2] | Rabbit serum linear peptides [3] | Rabbit serum looped peptides [3]
0.3: Binding of serum London to looped/cyclic peptides of protein X4 of SARS-CoV Urbani [1]
0.7: Binding of serum 1a to linear peptides of protein X4 of SARS-CoV Urbani [1] | Binding of serum 1a to looped/cyclic peptides of protein X4 of SARS-CoV Urbani [1] | Binding of serum 6 to linear peptides of protein X4 of SARS-CoV Urbani [1] | Binding of serum 37 to linear peptides of protein X4 of SARS-CoV Urbani [1] | Binding of serum SARS-yellow to looped/cyclic peptides of protein X4 of SARS-CoV Urbani [1]
0.5: Binding of serum 1b to linear peptides of protein X4 of SARS-CoV Urbani [1] | Binding of serum 2 to linear peptides of protein X4 of SARS-CoV Urbani [1] | Binding of serum SARS-green to looped/cyclic peptides of protein X4 of SARS-CoV Urbani [1] | Binding of Control serum Blood-bank to linear peptides [2]
0.6: Binding of serum 2 to looped/cyclic peptides of protein X4 of SARS-CoV Urbani [1] | Binding of serum 37 to looped/cyclic peptides of protein X4 of SARS-CoV Urbani [1] | Binding of serum 62 to linear peptides of protein X4 of SARS-CoV Urbani [1] | Binding of serum 62 to looped/cyclic peptides of protein X4 of SARS-CoV Urbani [1] | Binding of serum SARS-green to linear peptides of protein X4 of SARS-CoV Urbani [1] | Binding of serum SARS-yellow to linear peptides of protein X4 of SARS-CoV Urbani [1] | Binding of Control Serum Blood-Bank to Looped peptides [2] | Binding of Control serum LUMC to looped peptides [2]
